Results published in patent US5593984A, “Cephalosporin derivatives” (Yuhan Corporation, priority 1992, dated 1997).
≈ marks a conversion by molar mass, not a printed value.

How the values were obtained:
Type in all cases: cell-based
Ent. aerogenes IFO 12979 = experiment: MIC by agar dilution, Ent. aerogenes IFO 12979; details: Klebsiella aerogenes, IFO12979, 17 h, Mueller-Hinton agar, read-out: Minimal Inhibitory Concentration (MIC)
Procedure: (§1) These MIC values were determined by agar dilution method: that is, two-fold dilutions of each of the test compounds were made and dispersed in a Mueller-Hinton agar medium; standard test strain which had the 10^6 CFU (Colony Forming Unit) per ml was inoculated on the medium with microplanter (Toyo, Japan), and incubated at 35°-37° C. for 17±1 hours. The structures of Ceftazidime (CAZ) and Cefotaxime (CTX) which are used as control compounds are as follows: [drawing 12]

Ent. cloacae IFO 13535 = experiment: MIC by agar dilution, Ent. cloacae IFO 13535; details: Enterobacter cloacae, IFO13535, 17 h; Ent. cloacae IFO 13535; agar dilution, Mueller-Hinton agar; read-out: Minimal Inhibitory Concentration (MIC)
Procedure: as §1

M. morganii DY-1 = experiment: MIC by agar dilution, M. morganii DY-1; details: Morganella morganii, DY1, 17 h; M. morganii DY-1; agar dilution, Mueller-Hinton agar; read-out: Minimal Inhibitory Concentration (MIC)
Procedure: as §1

[1] = tested on: Ps. aeruginosa ATCC 10145; experiment: MIC by agar dilution, Ps. aeruginosa ATCC 10145; details: Pseudomonas aeruginosa, ATCC10145, 17 h, Mueller-Hinton agar, read-out: Minimal Inhibitory Concentration (MIC)
Procedure: as §1

[2] = tested on: Ser. marcescens IFO 12648; experiment: MIC by agar dilution, Ser. marcescens IFO 12648; details: Serratia marcescens, IFO12648, 17 h; Ser. marcescens IFO 12648; agar dilution, Mueller-Hinton agar; read-out: Minimal Inhibitory Concentration (MIC)
Procedure: as §1

E. coli DY-1 = experiment: MIC by agar dilution, E. coli DY-1; details: Escherichia coli, DY1, 17 h; E. coli DY-1; agar dilution, Mueller-Hinton agar; read-out: Minimal Inhibitory Concentration (MIC)
Procedure: as §1

K. pneumoniae NCTC 9632 = experiment: MIC by agar dilution, K. pneumoniae NCTC 9632; details: Klebsiella pneumoniae, NCTC9632, 17 h; K. pneumoniae NCTC 9632; agar dilution, Mueller-Hinton agar; read-out: Minimal Inhibitory Concentration (MIC)
Procedure: as §1

Prov. stuartii IFO 12930 = experiment: MIC by agar dilution, Prov. stuartii IFO 12930; details: Providencia stuartii, IFO12930, 17 h, Mueller-Hinton agar, read-out: Minimal Inhibitory Concentration (MIC)
Procedure: as §1

[3] = tested on: Ps. aeruginosa NCTC 10490; experiment: MIC by agar dilution, Ps. aeruginosa NCTC 10490; details: Pseudomonas aeruginosa, NCTC10490, 17 h, Mueller-Hinton agar, read-out: Minimal Inhibitory Concentration (MIC)
Procedure: as §1

[4] = tested on: S. epidermidis ATCC 12228; experiment: MIC by agar dilution, S. epidermidis ATCC 12228; details: Staphylococcus epidermidis, ATCC12228, 17 h; S. epidermidis ATCC 12228; agar dilution, Mueller-Hinton agar; read-out: Minimal Inhibitory Concentration (MIC)
Procedure: as §1

Staph. aureus ATCC 6538P = experiment: MIC by agar dilution, Staph. aureus ATCC 6538P; details: Staphylococcus aureus, ATCC6538P, 17 h; Staph. aureus ATCC 6538P; agar dilution, Mueller-Hinton agar; read-out: Minimal Inhibitory Concentration (MIC)
Procedure: as §1

E. coli No. 29 = experiment: MIC by agar dilution, E. coli No. 29; details: Escherichia coli, 17 h; E. coli No. 29; agar dilution, Mueller-Hinton agar; read-out: Minimal Inhibitory Concentration (MIC)
Procedure: as §1

B. subtilis ATCC 6633 = experiment: MIC by agar dilution, B. subtilis ATCC 6633; details: Bacillus subtilis, ATCC6633, 17 h; B. subtilis ATCC 6633; agar dilution, Mueller-Hinton agar; read-out: Minimal Inhibitory Concentration (MIC)
Procedure: as §1

P. vulgaris NCTC 8313 = experiment: MIC by agar dilution, P. vulgaris NCTC 8313; details: Proteus vulgaris, NCTC8313, 17 h; P. vulgaris NCTC 8313; agar dilution, Mueller-Hinton agar; read-out: Minimal Inhibitory Concentration (MIC)
Procedure: as §1

Staph. aureus Smith = experiment: MIC by agar dilution, Staph. aureus Smith; details: Staphylococcus aureus, 17 h, Mueller-Hinton agar, read-out: Minimal Inhibitory Concentration (MIC)
Procedure: as §1

Staph. aureus C-5216 = experiment: MIC by agar dilution, Staph. aureus C-5216; details: Staphylococcus aureus, C5216, 17 h, Mueller-Hinton agar, read-out: Minimal Inhibitory Concentration (MIC)
Procedure: as §1

E. coli NIHJ JC-2 = experiment: MIC by agar dilution, E. coli NIHJ JC-2; details: Escherichia coli, NIHJJC2, 17 h; E. coli NIHJ JC-2; agar dilution, Mueller-Hinton agar; read-out: Minimal Inhibitory Concentration (MIC)
Procedure: as §1

Staph. aureus C-5113 = experiment: MIC by agar dilution, Staph. aureus C-5113; details: Staphylococcus aureus, C5113, 17 h, Mueller-Hinton agar, read-out: Minimal Inhibitory Concentration (MIC)
Procedure: as §1

Ps. aeruginosa DY-2 = experiment: MIC by agar dilution, Ps. aeruginosa DY-2; details: Pseudomonas aeruginosa, DY2, 17 h; Ps. aeruginosa DY-2; agar dilution, Mueller-Hinton agar; read-out: Minimal Inhibitory Concentration (MIC)
Procedure: as §1

Staph. aureus C-57 = experiment: MIC by agar dilution, Staph. aureus C-57; details: Staphylococcus aureus, C57, 17 h, Mueller-Hinton agar, read-out: Minimal Inhibitory Concentration (MIC)
Procedure: as §1

| SMILES | MIC (Ent. aerogenes IFO 12979) [µg/mL] | MIC (Ent. cloacae IFO 13535) [µg/mL] | MIC (M. morganii DY-1) [µg/mL] | MIC [1] [µg/mL] | MIC [2] [µg/mL] | MIC (E. coli DY-1) [µg/mL] | MIC (K. pneumoniae NCTC 9632) [µg/mL] | MIC (Prov. stuartii IFO 12930) [µg/mL] | MIC [3] [µg/mL] | MIC [4] [µg/mL] | MIC (Staph. aureus ATCC 6538P) [µg/mL] | MIC (E. coli No. 29) [µg/mL] | MIC (B. subtilis ATCC 6633) [µg/mL] | MIC (P. vulgaris NCTC 8313) [µg/mL] | MIC (Staph. aureus Smith) [µg/mL] | MIC (Staph. aureus C-5216) [µg/mL] | MIC (E. coli NIHJ JC-2) [µg/mL] | MIC (Staph. aureus C-5113) [µg/mL] | MIC (Ps. aeruginosa DY-2) [µg/mL] | MIC (Staph. aureus C-57) [µg/mL] |
| --- | --- | --- | --- | --- | --- | --- | --- | --- | --- | --- | --- | --- | --- | --- | --- | --- | --- | --- | --- | --- |
| CCON=C(C(=O)NC1C(=O)N2C(C(=O)[O-])=C(C[n+]3ccn4c(SCCO)ccc4c3)CSC12)c1csc(N)n1 (stereo not drawn) [Ex. 9, 7-β-[(Z)-2-(2-aminothiazol-4-yl)-2-ethoxyiminoacetamido]-3-[6-(2-HYDROXYETHYLTHIO)PYRROLO[1,2-a]pyrazinium-2-yl]methyl-3-cephem-4-carboxylate] | 0.05 (≈ 0.0828 µM) | 0.2 (≈ 0.331 µM) | 0.012 (≈ 0.0199 µM) | 3.13 (≈ 5.18 µM) | 0.05 (≈ 0.0828 µM) | ≤ 0.006 | 0.025 (≈ 0.0414 µM) | 0.025 (≈ 0.0414 µM) | 0.2 (≈ 0.331 µM) | 0.05 (≈ 0.0828 µM) | 0.1 (≈ 0.166 µM) | ≤ 0.006 | 0.1 (≈ 0.166 µM) | ≤ 0.006 | 0.1 (≈ 0.166 µM) | 0.78 (≈ 1.29 µM) | 0.025 (≈ 0.0414 µM) | 0.39 (≈ 0.646 µM) | 3.13 (≈ 5.18 µM) | 12.5 (≈ 20.7 µM) |
| Nc1nc(C(=NOCF)C(=O)NC2C(=O)N3C(C(=O)[O-])=C(C[n+]4ccn5c(SCCO)ccc5c4)CSC23)cs1 (stereo not drawn) [Ex. 10, 7-β-[(Z)-2-(2-aminothiazol-4-yl)-2-fluoromethoxyiminoacetamido]-3-[6-(2-hydroxyethylthio)pyrrolo[1,2-a]pyrazinium-2-yl]methyl-3-cephem-4-carboxylate] | 0.05 (≈ 0.0823 µM) | 0.2 (≈ 0.329 µM) | 0.012 (≈ 0.0197 µM) | 0.78 (≈ 1.28 µM) | 0.012 (≈ 0.0197 µM) | ≤ 0.006 | 0.025 (≈ 0.0411 µM) | ≤ 0.006 | 0.2 (≈ 0.329 µM) | 0.05 (≈ 0.0823 µM) | 0.1 (≈ 0.165 µM) | ≤ 0.006 | 0.1 (≈ 0.165 µM) | 0.012 (≈ 0.0197 µM) | 0.1 (≈ 0.165 µM) | 0.78 (≈ 1.28 µM) | 0.025 (≈ 0.0411 µM) | 0.39 (≈ 0.642 µM) | 3.13 (≈ 5.15 µM) | 12.5 (≈ 20.6 µM) |
| CON=C(C(=O)NC1C(=O)N2C(C(=O)[O-])=C(C[n+]3ccn4c(Cl)ccc4c3)CSC12)c1csc(N)n1 (stereo not drawn) [Ex. 11, 7-β-[(Z)-2-(2-aminothiazol-4-yl)-2-methoxyiminoacetamido]-3-(6-chloropyrrolo[1,2-a]pyrazinium-2-yl)methyl-3-cephem-4-carboxylate] | ≤ 0.006 | 0.05 (≈ 0.0912 µM) | ≤ 0.006 | 0.78 (≈ 1.42 µM) | 0.012 (≈ 0.0219 µM) | ≤ 0.006 | ≤ 0.006 | ≤ 0.006 | 0.39 (≈ 0.712 µM) | 0.025 (≈ 0.0456 µM) | 0.2 (≈ 0.365 µM) | ≤ 0.006 | 0.1 (≈ 0.182 µM) | ≤ 0.006 | 0.39 (≈ 0.712 µM) | 0.78 (≈ 1.42 µM) | ≤ 0.006 | 0.78 (≈ 1.42 µM) | 3.13 (≈ 5.71 µM) | 12.5 (≈ 22.8 µM) |
| CCON=C(C(=O)NC1C(=O)N2C(C(=O)[O-])=C(C[n+]3ccn4c(Cl)ccc4c3)CSC12)c1csc(N)n1 (stereo not drawn) [Ex. 12, 7-β-[(Z)-2-(2-aminothiazol-4-yl)-2-ethoxyiminoacetamido]-3-(6-chloropyrrolo[1,2-a]pyrazinium-2-yl)methyl-3-cephem-4-carboxylate] | 0.025 (≈ 0.0445 µM) | 0.39 (≈ 0.694 µM) | 0.025 (≈ 0.0445 µM) | 1.56 (≈ 2.78 µM) | 0.025 (≈ 0.0445 µM) | 0.012 (≈ 0.0214 µM) | 0.025 (≈ 0.0445 µM) | 0.025 (≈ 0.0445 µM) | 0.39 (≈ 0.694 µM) | 0.05 (≈ 0.089 µM) | 0.2 (≈ 0.356 µM) | 0.012 (≈ 0.0214 µM) | 0.1 (≈ 0.178 µM) | 0.012 (≈ 0.0214 µM) | 0.39 (≈ 0.694 µM) | 0.78 (≈ 1.39 µM) | 0.05 (≈ 0.089 µM) | 0.78 (≈ 1.39 µM) | 6.25 (≈ 11.1 µM) | 12.5 (≈ 22.2 µM) |
